In ChEMBL document CHEMBL4825668, “Discovery of Novel Pyrimidine-Based Capsid Assembly Modulators as Potent Anti-HBV Agents” (J Med Chem, 2021):
The source made the active and inactive calls. No cut-off for these calls is given here.

Tests used:
[1] = Metabolic stability in rat liver microsomes assessed as compound remaining at […] incubated for 30 mins by LC/MS/MS analysis; type: ADME, Microsome; conditions: read-out: Stabilty
CYP1A2 = target: T1, CYP1A2 (Homo sapiens, UniProt P05177); assay: Inhibition of human recombinant CYP1A2 using alpha-naphthoflavone […] at 10 uM by fluorometric assay; type: ADME
T1 sequence (P05177 whole entry): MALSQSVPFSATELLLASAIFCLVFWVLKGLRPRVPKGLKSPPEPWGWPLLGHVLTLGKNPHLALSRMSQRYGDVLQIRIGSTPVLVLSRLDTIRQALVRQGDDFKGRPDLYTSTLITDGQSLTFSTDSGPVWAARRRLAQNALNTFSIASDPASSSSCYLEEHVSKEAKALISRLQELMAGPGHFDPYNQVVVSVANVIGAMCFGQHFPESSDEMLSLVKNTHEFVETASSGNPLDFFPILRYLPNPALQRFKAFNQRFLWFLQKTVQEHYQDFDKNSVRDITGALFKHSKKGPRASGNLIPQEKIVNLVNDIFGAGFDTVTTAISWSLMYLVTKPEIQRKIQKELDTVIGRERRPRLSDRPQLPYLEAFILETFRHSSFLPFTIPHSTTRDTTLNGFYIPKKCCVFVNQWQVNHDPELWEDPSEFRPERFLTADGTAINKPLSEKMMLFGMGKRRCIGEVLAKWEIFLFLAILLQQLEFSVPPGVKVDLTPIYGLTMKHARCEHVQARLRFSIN

Hepatitis B virus [2] = assay: Antiviral activity against Human hepatitis B virus in Huh-7 cells assessed as reduction in intracellular viral DNA level incubated for 36 hrs by qPCR analysis; type: functional, organism-based; conditions: Huh-7, 36 h
CYP3A4 = CYP3A4 (Homo sapiens, UniProt P08684); assay: Inhibition of human recombinant CYP3A4 using ketoconazole […] at 10 uM by fluorometric assay; type: ADME
CYP2D6 = CYP2D6 (Homo sapiens, UniProt P10635); assay: Inhibition of human recombinant CYP2D6 using quinidine […] at 10 uM by fluorometric assay; type: ADME
hERG (KCNH2) = hERG (KCNH2) (Homo sapiens, UniProt Q12809); assay: Inhibition of human ERG at 40 uM incubated for 2 to 3 hrs by ligand binding assay
CYP2C9 = CYP2C9 (Homo sapiens, UniProt P11712); assay: Inhibition of human recombinant CYP2C9 using sulfaphenazole […] at 10 uM by fluorometric assay; type: ADME
[3] = Mutagenicity in Salmonella typhimurium in presence of S9 fraction by Ames test; type: toxicity, subcellular; conditions: salmonella enterica subsp. enterica serovar typhimurium
[4] = Permeability of the compound at pH 7.4 by PAMPA; type: ADME
[5] = Metabolic stability in human liver microsomes assessed as compound remaining at […] incubated for 30 mins by LC/MS/MS analysis; type: ADME, Microsome; conditions: read-out: Stabilty
CYP2C19 = CYP2C19 (Homo sapiens, UniProt P33261); assay: Inhibition of human recombinant CYP2C19 using amitriptyline […] at 10 uM by fluorometric assay; type: ADME
[6] = Metabolic stability in mouse liver microsomes assessed as compound remaining at […] incubated for 30 mins by LC/MS/MS analysis; type: ADME, Microsome; conditions: read-out: Stabilty
Hepatitis B virus [7] = assay: Inhibition of HBV recombinant Cp149 expressed in Escherichia coli BL21 (DE3) assessed as inhibition of capsid assembly at 0.1 uM incubated for 1 hr by immune blotting analysis relative to control
Hepatitis B virus [8] = assay: Inhibition of HBV recombinant Cp149 expressed in Escherichia coli BL21 (DE3) assessed as inhibition of capsid assembly at 1 uM incubated for 1 hr by immune blotting analysis relative to control
[9] = Oral bioavailability in ICR mouse at 10 mg/kg measured after 1440 mins by HPLC analysis; type: ADME, organism-based; conditions: in vivo
[10] = Tmax in ICR mouse at 10 mg/kg, po measured after 1440 mins by HPLC analysis; type: ADME, organism-based; conditions: in vivo
[11] = Cmax in ICR mouse at 10 mg/kg, po measured after 1440 mins by HPLC analysis; type: ADME, organism-based; design: route oral, dose 10 mg/kg, time 1440 min; conditions: in vivo
[12] = AUClast in ICR mouse at 5 mg/kg, iv measured after 1440 mins by HPLC analysis; type: ADME, organism-based; design: route intravenous, dose 5 mg/kg, time 1440 min; conditions: in vivo
[13] = AUC(infinity) in ICR mouse at 10 mg/kg, po measured after 1440 mins by HPLC analysis; type: ADME, organism-based; design: route oral, dose 10 mg/kg, time 1440 min; conditions: in vivo
[14] = AUClast in ICR mouse at 10 mg/kg, po measured after 1440 mins by HPLC analysis; type: ADME, organism-based; design: route oral, time 1440 min, dose 10 mg/kg; conditions: in vivo
[15] = Cmax in ICR mouse at 5 mg/kg, iv measured after 1440 mins by HPLC analysis; type: ADME, organism-based; design: route intravenous, dose 5 mg/kg, time 1440 min; conditions: in vivo
[16] = AUC(infinity) in ICR mouse at 5 mg/kg, iv measured after 1440 mins by HPLC analysis; type: ADME, organism-based; design: route intravenous, time 1440 min, dose 5 mg/kg; conditions: in vivo
[17] = Half life in ICR mouse at 5 mg/kg, iv measured after 1440 mins by HPLC analysis; type: ADME, organism-based; conditions: in vivo
[18] = Half life in ICR mouse at 10 mg/kg, po measured after 1440 mins by HPLC analysis; type: ADME, organism-based; conditions: in vivo
[19] = Clearance in ICR mouse at 5 mg/kg, iv measured after 1440 mins by HPLC analysis; type: ADME, organism-based; conditions: in vivo
[20] = Volume of distribution at steady state in ICR mouse at 5 mg/kg, iv measured after 1440 mins by HPLC analysis; type: ADME, organism-based; conditions: in vivo, read-out: Vdss
[21] = AUClast in ICR mouse at 10 mg/kg, iv measured after 1440 mins by HPLC analysis; type: ADME, organism-based; design: route intravenous, dose 10 mg/kg, time 1440 min; conditions: in vivo
[22] = AUC(infinity) in ICR mouse at 10 mg/kg, iv measured after 1440 mins by HPLC analysis; type: ADME, organism-based; design: route intravenous, time 1440 min, dose 10 mg/kg; conditions: in vivo
[23] = Clearance in ICR mouse at 10 mg/kg, iv measured after 1440 mins by HPLC analysis; type: ADME, organism-based; conditions: in vivo
[24] = Volume of distribution at steady state in ICR mouse at 10 mg/kg, iv measured after 1440 mins by HPLC analysis; type: ADME, organism-based; conditions: in vivo, read-out: Vdss
[25] = Half life in ICR mouse at 10 mg/kg, iv measured after 1440 mins by HPLC analysis; type: ADME, organism-based; conditions: in vivo
[26] = Toxicity in BALB/c mouse assessed as changes in blood up to 400 mg/kg, po for 2 weeks; type: organism-based; conditions: in vivo, 336 h
[27] = target: Voltage-gated inwardly rectifying potassium channel KCNH2 (Homo sapiens, UniProt Q12809); assay: Inhibition of human ERG expressed in HEK cells at -80 mV holding potential by patch clamp assay relative to control; type: cell-based
[28] = Toxicity in BALB/c mouse assessed as changes in urine up to 400 mg/kg, po for 2 weeks; type: organism-based; conditions: in vivo, 336 h
Huh-7 [29] = assay: Inhibition of HBV recombinant Cp149 expressed in Huh-7 cells assessed as assembled HBV core protein fraction at 1 uM incubated for 1 hr by sucrose gradient analysis; type: cell-based; conditions: Hepatitis B virus
Hepatitis B virus [30] = assay: Antiviral activity against Human hepatitis B virus infected in humanized liver uPA SCID mouse model assessed as change in serum HBsAg at 40 mg/kg, po daily measured every week by ELISA; type: functional, organism-based
Hepatitis B virus [31] = assay: Antiviral activity against Human hepatitis B virus infected in hydrodynamic injection C57BL/6 mouse model assessed as reduction in viral DNA in serum up to 120 mg/kg, po daily measured after 5 days by qPCR analysis; type: functional, organism-based; conditions: dose mg/kg <=120, time 5.0 day
Hepatitis B virus [32] = assay: Antiviral activity against Human hepatitis B virus in Huh-7 cells assessed as reduction in HBsAg level by ELISA; type: functional, organism-based
Hepatitis B virus [33] = assay: Antiviral activity against Human hepatitis B virus infected in humanized liver uPA SCID mouse model assessed as reduction in HBV core protein at 40 mg/kg, po daily measured after 35 days by immunohistochemical analysis; type: functional, organism-based; conditions: time 35.0 day
Huh-7 [34] = assay: Inhibition of HBV recombinant Cp149 expressed in Huh-7 cells assessed as inhibition of secretion of particles containing viral DNA at 1 uM incubated for 1 hr by immunoblot analysis; type: cell-based; conditions: Hepatitis B virus
Hepatitis B virus [35] = assay: Antiviral activity against Human hepatitis B virus infected in humanized liver uPA SCID mouse model assessed as change in serum HBeAg at 40 mg/kg, po daily measured every week by ELISA; type: functional, organism-based
Hepatitis B virus [36] = assay: Antiviral activity against Human hepatitis B virus infected in hydrodynamic injection C57BL/6 mouse model assessed as reduction in serum HBsAg up to 120 mg/kg, po daily by ELISA; type: functional, organism-based; conditions: dose mg/kg <=120
Hepatitis B virus [37] = assay: Antiviral activity against Human hepatitis B virus in Huh-7 cells assessed as decrease in viral DNA level incubated for 36 hrs by qPCR analysis; type: functional, organism-based
Hepatitis B virus [38] = assay: Antiviral activity against Human hepatitis B virus in Huh-7 cells assessed as decrease in intracellular viral DNA accumulation incubated for 36 hrs by qPCR analysis; type: functional, organism-based
Hepatitis B virus [39] = assay: Antiviral activity against Human hepatitis B virus infected in humanized liver uPA SCID mouse model assessed as decrease in serum viral DNA at 40 mg/kg, po daily measured every week by qPCR analysis; type: functional, organism-based
Hepatitis B virus [40] = assay: Inhibition of HBV recombinant Cp149 expressed in Escherichia coli BL21 (DE3) assessed as inhibition of capsid assembly at 10 uM incubated for 1 hr by immune blotting analysis relative to control

Sequence of hERG (KCNH2) (Q12809 whole entry): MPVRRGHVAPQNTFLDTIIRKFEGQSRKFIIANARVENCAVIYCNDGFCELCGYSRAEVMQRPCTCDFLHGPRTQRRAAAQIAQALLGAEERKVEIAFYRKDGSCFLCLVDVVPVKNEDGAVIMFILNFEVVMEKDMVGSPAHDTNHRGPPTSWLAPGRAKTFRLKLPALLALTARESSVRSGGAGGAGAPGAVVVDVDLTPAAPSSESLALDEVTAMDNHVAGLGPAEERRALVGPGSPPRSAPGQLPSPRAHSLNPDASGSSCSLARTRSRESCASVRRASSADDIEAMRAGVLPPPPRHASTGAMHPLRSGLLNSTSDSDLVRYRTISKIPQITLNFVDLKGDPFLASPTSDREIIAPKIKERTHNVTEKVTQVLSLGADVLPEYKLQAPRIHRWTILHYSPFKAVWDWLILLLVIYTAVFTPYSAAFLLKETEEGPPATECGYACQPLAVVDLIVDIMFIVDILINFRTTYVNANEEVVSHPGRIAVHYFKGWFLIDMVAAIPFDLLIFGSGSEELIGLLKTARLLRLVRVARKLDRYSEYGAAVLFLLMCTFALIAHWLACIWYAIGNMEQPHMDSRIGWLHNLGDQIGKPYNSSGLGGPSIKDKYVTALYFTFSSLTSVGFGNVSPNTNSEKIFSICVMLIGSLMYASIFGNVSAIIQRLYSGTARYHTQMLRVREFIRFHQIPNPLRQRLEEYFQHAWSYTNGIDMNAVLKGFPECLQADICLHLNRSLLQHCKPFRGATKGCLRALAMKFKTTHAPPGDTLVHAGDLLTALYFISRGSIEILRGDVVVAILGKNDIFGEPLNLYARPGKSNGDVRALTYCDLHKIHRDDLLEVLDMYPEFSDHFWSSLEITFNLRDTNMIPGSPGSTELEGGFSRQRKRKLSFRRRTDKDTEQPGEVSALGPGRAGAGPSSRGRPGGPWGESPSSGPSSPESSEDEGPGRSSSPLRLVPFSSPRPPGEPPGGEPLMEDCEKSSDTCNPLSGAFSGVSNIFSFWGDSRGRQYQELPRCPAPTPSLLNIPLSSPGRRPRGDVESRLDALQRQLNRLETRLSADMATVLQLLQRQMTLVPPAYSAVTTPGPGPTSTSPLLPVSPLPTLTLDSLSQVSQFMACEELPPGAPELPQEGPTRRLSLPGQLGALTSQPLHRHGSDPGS
Sequence of CYP2C19 (P33261 whole entry): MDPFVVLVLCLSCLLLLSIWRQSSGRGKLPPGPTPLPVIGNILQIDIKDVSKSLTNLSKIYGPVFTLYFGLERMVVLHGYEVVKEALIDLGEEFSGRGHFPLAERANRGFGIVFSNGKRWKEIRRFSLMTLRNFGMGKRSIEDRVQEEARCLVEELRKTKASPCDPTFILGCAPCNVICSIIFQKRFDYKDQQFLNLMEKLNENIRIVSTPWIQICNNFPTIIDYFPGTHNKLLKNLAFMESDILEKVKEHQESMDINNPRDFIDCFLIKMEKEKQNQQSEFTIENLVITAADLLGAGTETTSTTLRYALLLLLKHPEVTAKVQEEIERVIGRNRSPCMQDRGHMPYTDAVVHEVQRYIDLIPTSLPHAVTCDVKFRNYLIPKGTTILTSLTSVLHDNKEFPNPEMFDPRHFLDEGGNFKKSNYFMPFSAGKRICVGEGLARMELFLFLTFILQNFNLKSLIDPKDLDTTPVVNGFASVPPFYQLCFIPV
Sequence of CYP2D6 (P10635 whole entry): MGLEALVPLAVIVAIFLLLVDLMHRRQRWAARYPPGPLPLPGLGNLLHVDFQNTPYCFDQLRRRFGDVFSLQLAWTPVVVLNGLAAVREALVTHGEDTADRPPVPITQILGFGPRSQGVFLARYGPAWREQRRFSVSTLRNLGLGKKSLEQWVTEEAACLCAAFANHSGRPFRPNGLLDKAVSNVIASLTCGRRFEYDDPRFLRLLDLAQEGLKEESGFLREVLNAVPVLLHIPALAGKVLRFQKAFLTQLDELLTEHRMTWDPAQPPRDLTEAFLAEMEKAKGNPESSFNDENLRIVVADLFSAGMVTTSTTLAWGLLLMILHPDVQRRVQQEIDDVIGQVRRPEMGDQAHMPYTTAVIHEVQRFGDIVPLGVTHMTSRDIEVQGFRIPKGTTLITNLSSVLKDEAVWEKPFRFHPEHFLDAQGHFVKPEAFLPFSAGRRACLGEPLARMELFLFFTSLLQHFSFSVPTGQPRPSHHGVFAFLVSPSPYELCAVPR
Sequence of CYP2C9 (P11712 whole entry): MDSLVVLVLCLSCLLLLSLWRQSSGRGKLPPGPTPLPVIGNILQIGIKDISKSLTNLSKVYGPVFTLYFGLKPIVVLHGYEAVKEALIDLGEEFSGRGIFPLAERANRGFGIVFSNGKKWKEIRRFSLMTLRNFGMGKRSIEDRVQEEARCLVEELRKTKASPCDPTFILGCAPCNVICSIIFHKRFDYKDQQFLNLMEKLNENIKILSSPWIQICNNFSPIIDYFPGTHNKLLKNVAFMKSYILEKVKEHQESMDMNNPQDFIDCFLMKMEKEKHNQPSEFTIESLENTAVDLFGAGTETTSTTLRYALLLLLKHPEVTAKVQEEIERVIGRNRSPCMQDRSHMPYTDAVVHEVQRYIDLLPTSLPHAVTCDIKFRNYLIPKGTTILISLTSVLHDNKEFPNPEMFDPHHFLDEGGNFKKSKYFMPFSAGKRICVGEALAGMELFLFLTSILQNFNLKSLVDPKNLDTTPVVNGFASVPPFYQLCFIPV
Sequence of CYP3A4 (P08684 whole entry): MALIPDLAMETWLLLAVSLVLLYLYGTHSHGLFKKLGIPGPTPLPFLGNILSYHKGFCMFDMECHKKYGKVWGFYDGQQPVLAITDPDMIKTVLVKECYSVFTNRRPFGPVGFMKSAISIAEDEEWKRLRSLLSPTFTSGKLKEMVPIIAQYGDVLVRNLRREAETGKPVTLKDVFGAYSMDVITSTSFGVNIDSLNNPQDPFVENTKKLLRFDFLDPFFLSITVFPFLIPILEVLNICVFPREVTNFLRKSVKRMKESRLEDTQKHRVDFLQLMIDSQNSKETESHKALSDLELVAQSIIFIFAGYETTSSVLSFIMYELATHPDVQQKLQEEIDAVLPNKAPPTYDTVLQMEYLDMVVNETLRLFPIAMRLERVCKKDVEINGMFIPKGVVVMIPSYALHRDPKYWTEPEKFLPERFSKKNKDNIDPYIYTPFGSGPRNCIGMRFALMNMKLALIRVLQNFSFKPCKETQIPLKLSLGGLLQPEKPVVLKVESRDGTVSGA
Sequence of Voltage-gated inwardly rectifying potassium channel KCNH2 (Q12809 whole entry): as the sequence (Q12809 whole entry) above

Structure (SMILES)	remaining at 0.5 h [1] [%]	inhibition at 10 µM (CYP1A2) [%]	IC50 (Hepatitis B virus [2]) [nM]	inhibition at 10 µM (CYP3A4) [%]	inhibition at 10 µM (CYP2D6) [%]	inhibition at 40 µM (hERG (KCNH2)) [%]	inhibition at 10 µM (CYP2C9) [%]	Activity [3]	log(permeability) [4]	remaining at 0.5 h [5] [%]	inhibition at 10 µM (CYP2C19) [%]	remaining at 0.5 h [6] [%]	further results
CS(=O)(=O)c1nc(Nc2ccc(F)c(Cl)c2)cc(N2CCNCC2)n1	> 99	57.4	189	60.2	45.2	14	64.8	Non-Toxic	-5.37	> 99	41.2	> 99	–
CS(=O)(=O)c1nc(Nc2cc(F)c(F)c(F)c2)cc(N2CCNCC2)n1	87.9	23.6	203	52.1	5.76	48.7	85.2	Non-Toxic	–	99.9	93.4	99.8	inhibition (Hepatitis B virus [7]): 39%; inhibition (Hepatitis B virus [8]): 92%
CS(=O)(=O)c1nc(Nc2ccc(F)c(Cl)c2)cc(NC2CCC(N)CC2)n1.Cl (stereo unspecified)	–	–	–	–	–	–	–	–	–	–	–	–	bioavailability [9]: 4.8%; Tmax [10]: 1.8 h; Cmax [11]: 28.3 ng/mL; AUC(0-t) at 24 h [12]: 2110 ng·h/mL; AUC(0-inf) [13]: 270 ng·h/mL; AUC(0-t) at 24 h [14]: 203 ng·h/mL; Cmax [15]: 9780 ng/mL; AUC(0-inf) [16]: 2410 ng·h/mL; half-life [17]: 4.8 h; half-life [18]: 6.3 h; clearance [19]: 36.7 mL/min/kg; Vd [20]: 5.4 L/kg
CS(=O)(=O)c1nc(Nc2ccc(F)c(Cl)c2)cc(N2CCNCC2)n1.Cl	–	–	–	–	–	–	–	–	–	–	–	–	AUC(0-t) at 24 h [21]: 2370 ng·h/mL; bioavailability [9]: 4.6%; Tmax [10]: 0.5 h; Cmax [11]: 25 ng/mL; AUC(0-inf) [22]: 2330 ng·h/mL; AUC(0-inf) [13]: 107 ng·h/mL; AUC(0-t) at 24 h [14]: 131 ng·h/mL; clearance [23]: 70.8 mL/min/kg; Vd [24]: 10.9 L/kg; half-life [18]: 7.8 h; half-life [25]: 3.3 h
CS(=O)(=O)c1nc(Nc2ccc(F)c(Cl)c2)cc(NC2CCC(N)CC2)n1 (stereo unspecified) [listing 1 of 2 here]	82	37.2	181	44	21.7	76.6	51.8	Non-Toxic	-5.15	81.7	71.4	79.6	Activity [26]: Non-Toxic; IC50 [27]: 19800 nM; Activity [28]: Non-Toxic
CS(=O)(=O)c1nc(Nc2ccc(F)c(Cl)c2)cc(NC2CCC(N)CC2)n1 (stereo unspecified) [listing 2 of 2 here]	–	–	–	–	–	–	–	–	–	–	–	–	inhibition (Huh-7 [29]): Active; Activity (Hepatitis B virus [30]): Active; Activity (Hepatitis B virus [31]): Dose-Dependent Effect; Activity (Hepatitis B virus [32]): inactive; Activity (Hepatitis B virus [33]): Active; inhibition (Huh-7 [34]): Active; inhibition (Hepatitis B virus [7]): 52%; Activity (Hepatitis B virus [35]): Active; inhibition (Hepatitis B virus [8]): 99%; Activity (Hepatitis B virus [36]): Active; Activity (Hepatitis B virus [37]): Active; Activity (Hepatitis B virus [38]): Active; Activity (Hepatitis B virus [39]): Active
COc1ncccc1C(=O)NCCNc1cc(Nc2ccc(N3CCOCC3)cc2)nc([S+](C)[O-])n1 (stereo unspecified)	77.1	18.3	402	51.7	–	–	42.9	–	-5.47	93.4	40.7	80.2	inhibition (Hepatitis B virus [40]): 95%
